The text below walks through data of ChEMBL document CHEMBL1141990, “Effects of suberoylanilide hydroxamic acid and trichostatin A on induction of cytochrome P450 enzymes and benzo[a]pyrene DNA adduct formation in human cells” (2005).

Holding throughout (type): functional
Assay [1] has as its system MCF7. The assay can be described thus: Average fold change in expression of CYP1A1 after treatment with compound of concentration 1 mM in human MCF-7 cells.
Assay [2] has as its system MCF7. The assay can be described thus: Average fold change in expression of CYP1B1 after co-treatment with compound of concentration 1 mM in human MCF-7 cells.
In assay [3] the test system is MCF7. As to the kind of experiment: Average fold change in expression of CYP1A1 after co-treatment with compound of concentration 1 mM in human MCF-7 cells.
Assay [4] deals with MCF7. The assay can be described thus: Average fold change in expression of CYP1A1 at 1 mM after co-treatment with compound and TSA in human MCF-7 cells.
The test system of assay [5] is MCF7. The assay can be described thus: Mean B[a]P DNA binding at 4 uM in human MCF-7 cells.
The test system of assay [6] is MCF7. The assay can be described thus: Average fold change in expression of CYP1B1 at 1 mM after co-treatment with compound and SAHA in human MCF-7 cells.
Assay [7] relates to MCF7. The assay can be described thus: Average fold change in expression of CYP1B1 at 1 mM after co-treatment with compound and TSA in human MCF-7 cells.
The test system of assay [8] is MCF7. The assay can be described thus: Mean B[a]P DNA binding at 4 uM after co-treatment with compound and SAHA (2 uM) in human MCF-7 cells.
In assay [9] the test system is MCF7. As to the kind of experiment: Average fold change in expression of CYP1A1 at 1 mM after co-treatment with compound and SAHA in human MCF-7 cells.
The test system of assay [10] is MCF7. As to the kind of experiment: Mean B[a]P DNA binding at 4 uM after co-treatment with compound and TSA (2 uM) in human MCF-7 cells.
For assay [11], the system named is MCF7. As to the kind of experiment: Average fold change in expression of CYP1A1 after treatment with compound of concentration 0.1 mM in human MCF-7 cells.
The test system of assay [12] is MCF7. As to the kind of experiment: Average fold change in expression of CYP1B1 after treatment with compound of concentration 0.1 mM in human MCF-7 cells.
In assay [13] the test system is MCF7. The assay can be described thus: Average fold change in expression of CYP1B1 after treatment with compound of concentration 0.01 mM in human MCF-7 cells.
For assay [14], the system named is MCF7. The assay can be described thus: Average fold change in expression of CYP1A1 after treatment with compound of concentration 0.01 mM in human MCF-7 cells.
Assay [15] deals with MCF7. As to the kind of experiment: Average fold change in expression of CYP1B1 after treatment with compound of concentration 1 mM in human MCF-7 cells.

As to `c1ccc2c(c1)cc1ccc3cccc4ccc2c1c34` [BENZO[DEF]CHRYSENE], the Fold change in the assay with MCF7 [1] came to 25.24; in the assay with MCF7 [2] it was 4.39; in the assay on MCF7 [3], 25.55; in the assay with MCF7 [4], 8.77; in the assay on MCF7 [6] it was 2.4; in the assay with MCF7 [7], 1.02. Also, the Fold change is 22.92 in the assay on MCF7 [9]; 3.69 in the assay on MCF7 [11]; 1.7 with MCF7 [12]; 1.36 in the assay on MCF7 [13]; 1.85 with MCF7 [14]; 4.35 in the assay with MCF7 [15]. For the same molecule, the Activity came out at 34.75 pmol adducts/mg DNA in the assay with MCF7 [5], 52.18 pmol adducts/mg DNA with MCF7 [8] and 54.15 pmol adducts/mg DNA in the assay on MCF7 [10].

On to `O=C(CCCCCCC(=O)Nc1ccccc1C(=O)NO)Nc1ccccc1`, for which the Fold change worked out at 0.98 with MCF7 [1]; 2.86 in the assay on MCF7 [11]; 1.62 in the assay with MCF7 [12]; 1.1 in the assay on MCF7 [13]; 0.77 with MCF7 [14]; 1.58 with MCF7 [15].

As to `CC(/C=C/C(=O)NO)=C\[C@@H](C)C(=O)c1ccc(N(C)C)cc1` [TRICHOSTATIN], the Fold change in the assay on MCF7 [1] is 3.1; in the assay with MCF7 [11], 0.81; in the assay on MCF7 [12], 1.57; in the assay on MCF7 [13], 1.29; in the assay on MCF7 [14] it was 0.77; in the assay with MCF7 [15] it was 0.17.
